For assay [1], the target named is T1, CcrA (Bacteroides fragilis, UniProt P25910). The assay can be described thus: 1H, […] HSQC NMR titration, chemical shift perturbation, fast exchange. Format: binding.
In assay [2] the target is T1, CcrA. In words: 1H, […] HSQC NMR titration, slow exchange (relative peak intensities). Format: binding.

T1 sequence (P25910 19-249): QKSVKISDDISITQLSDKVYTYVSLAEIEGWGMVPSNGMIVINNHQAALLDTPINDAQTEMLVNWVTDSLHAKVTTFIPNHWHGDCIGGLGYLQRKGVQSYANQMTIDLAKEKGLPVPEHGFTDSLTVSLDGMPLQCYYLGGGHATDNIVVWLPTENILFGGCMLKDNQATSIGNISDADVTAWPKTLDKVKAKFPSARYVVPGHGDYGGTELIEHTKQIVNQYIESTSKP

For orientation: Kd means the equilibrium constant for the complex coming apart. With `O=C(CSc1nnc(-c2ccccc2C(=O)O)[nH]1)Nc1nc2ccccc2s1` [compound 4, 4], on CcrA [1], the Kd came to 11 ± 11 µM.
Same read-out and setting: next, `O=C(CSc1nnc(-c2ccccc2C(=O)O)[nH]1)Nc1ccccc1` [compound 5, 5]: 34 ± 43 µM.
In turn, `O=C(CSc1nnc(-c2ccccc2C(=O)O)[nH]1)Nc1ccc(Cl)cc1` [compound 6, 6] came in with a Kd on CcrA [2] of approximately 2.3 µM.

Source of the values: paper PMC7469393, “Binding of 2-(Triazolylthio)acetamides to Metallo-β-lactamase CcrA Determined with NMR” (ACS Omega, 2020).
